In brackets after ≈: the same amount, converted by molar mass. Marks after values point to notes of the source that are not given here.
Columns and labels:
[1] = Kinetic aqueous solubility in PBS by nephelometry; settings: for Aqueous Solubility: PBS buffer (pH 7.4) with 1% DMSO, nephelometry
[2] = pH 2
in vivo = settings: C57BL/6, mouse, ip, 10 mg/kg
human EP2 receptor = target: T1, human EP2 receptor (Homo sapiens, UniProt P43116); assay: Cell-based cAMP TR-FRET assay, Schild KB on EP2; settings: for fold less EP2 potency in comparison to 2a: comparator 2a; for Kb / EP2 KB: Schild KB, agonist PGE2, antagonist concentration 1 μM, C6G cells expressing human EP2; for fold less potent than equivalent derivative: 11a vs 8b, 11b vs 8g, 11c vs 8f
T1 construct: expressed in transfected cells
T1 sequence (P43116 whole entry): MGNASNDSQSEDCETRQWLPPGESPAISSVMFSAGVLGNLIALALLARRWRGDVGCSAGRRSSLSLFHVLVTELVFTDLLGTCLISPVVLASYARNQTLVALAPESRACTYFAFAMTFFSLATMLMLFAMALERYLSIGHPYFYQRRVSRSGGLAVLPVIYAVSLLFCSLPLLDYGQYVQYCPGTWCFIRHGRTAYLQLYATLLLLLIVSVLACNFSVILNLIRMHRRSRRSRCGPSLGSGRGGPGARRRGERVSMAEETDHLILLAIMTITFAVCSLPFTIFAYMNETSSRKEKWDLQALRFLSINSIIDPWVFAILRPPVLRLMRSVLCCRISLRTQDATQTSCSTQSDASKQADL

human IP receptor = human IP receptor (Homo sapiens, UniProt P43119); assay: Cell-based cAMP TR-FRET assay on IP (agonist iloprost); settings: selectivity index IP KB/EP2 KB, fold
human IP receptor, sequence (P43119 whole entry): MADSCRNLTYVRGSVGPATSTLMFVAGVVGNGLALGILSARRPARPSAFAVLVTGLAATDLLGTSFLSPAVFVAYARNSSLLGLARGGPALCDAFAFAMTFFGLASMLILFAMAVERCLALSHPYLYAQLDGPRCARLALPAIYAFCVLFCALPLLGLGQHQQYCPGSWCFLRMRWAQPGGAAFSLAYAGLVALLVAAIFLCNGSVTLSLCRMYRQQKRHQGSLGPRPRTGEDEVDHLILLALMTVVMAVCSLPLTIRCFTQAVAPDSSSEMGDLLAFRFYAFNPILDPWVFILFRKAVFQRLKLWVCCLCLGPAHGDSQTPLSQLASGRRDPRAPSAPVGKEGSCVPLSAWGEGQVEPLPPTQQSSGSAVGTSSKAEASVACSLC

human EP4 receptor = human EP4 receptor (Homo sapiens, UniProt P35408); assay: Cell-based cAMP TR-FRET assay on EP4 (agonist PGE2); settings: selectivity index EP4 KB/EP2 KB, fold
human EP4 receptor, sequence (P35408 whole entry): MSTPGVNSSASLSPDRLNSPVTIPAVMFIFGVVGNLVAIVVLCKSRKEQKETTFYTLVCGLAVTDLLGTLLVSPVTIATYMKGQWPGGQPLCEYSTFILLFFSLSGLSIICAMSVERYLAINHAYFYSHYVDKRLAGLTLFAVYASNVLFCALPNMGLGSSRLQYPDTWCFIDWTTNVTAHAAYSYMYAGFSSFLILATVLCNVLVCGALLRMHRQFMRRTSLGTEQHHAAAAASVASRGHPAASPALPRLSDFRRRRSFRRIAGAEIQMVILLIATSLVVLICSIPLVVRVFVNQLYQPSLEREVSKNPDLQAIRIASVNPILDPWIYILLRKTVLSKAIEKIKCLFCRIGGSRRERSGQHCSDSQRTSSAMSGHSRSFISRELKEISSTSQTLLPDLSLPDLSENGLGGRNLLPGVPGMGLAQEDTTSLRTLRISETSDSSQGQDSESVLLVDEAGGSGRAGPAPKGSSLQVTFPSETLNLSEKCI

## Cc1[nH]c2ccccc2c1CCNC(=O)c1cnc(Nc2cc(C(C)(C)C)ccn2)nc1 [Compound 20d, 2-((4-(tert-Butyl)pyridin-2-yl)amino)-N-(2-(2-methyl-1H-indol-3-yl)ethyl)pyrimidine-5-carboxamide]
[1]
  Aqueous Solubility: 5 µM

## COc1ccccc1-c1ccc(C(=O)NCCc2c(C)[nH]c3ccccc23)cn1 [Compound 8c, 6-(2-Methoxyphenyl)-N-(2-(2-methyl-1H-indol-3-yl)ethyl)nicotinamide]
[2]
  Solubility in SGF: >100 µM
[1]
  Aqueous Solubility: 28 µM
In vivo
  half-life: < 1 h

## Cc1[nH]c2ccccc2c1CCNC(=O)c1ccc(-c2ccccc2F)nc1 [Compound 8e, 6-(2-Fluorophenyl)-N-(2-(2-methyl-1H-indol-3-yl)ethyl)nicotinamide]
[2]
  Solubility in SGF: >100 µM
[1]
  Aqueous Solubility: 22 µM
Human EP2 receptor
  fold less EP2 potency in comparison to 2a: 2 fold
Human EP2 receptor; comparator 8c (14b vs. 14c or 8c)
  fold less EP2 potency in comparison to 8c: 4 fold

## COc1ccc2[nH]c(C)c(CCNC(=O)c3cnc(Nc4cc(C)cc(C)n4)nc3)c2c1 [Compound 24e, 2-((4,6-Dimethylpyridin-2-yl)amino)-N-(2-(5-methoxy-2-methyl-1H-indol-3-yl)ethyl)pyrimidine-5-carboxamide]
[1]
  Aqueous Solubility: 20 µM

## Cc1ccc(Nc2ncc(C(=O)NCCc3c(C)[nH]c4ccccc34)cn2)c(C)n1 [Compound 20r, 2-((2,6-Dimethylpyridin-3-yl)amino)-N-(2-(2-methyl-1H-indol-3-yl)ethyl)pyrimidine-5-carboxamide]
[1]
  Aqueous Solubility: 100 µM
Human EP2 receptor; 20f vs. 20c, 20n vs. 20e, comparator of 20g and 20r not stated
  fold reduced EP2 potency: 10 fold
Human EP2 receptor
  Kb: 88.1 nM

## Cc1cc(C)nc(Nc2ncc(C(=O)NCCc3c(C)[nH]c4ccc(Cl)cc34)cn2)c1 [Compound 24b, N-(2-(5-Chloro-2-methyl-1H-indol-3-yl)ethyl)-2-((4,6-dimethylpyridin-2-yl)amino)pyrimidine-5-carboxamide]
Human IP receptor
  S.I (IP/EP2): >350
Human EP4 receptor
  S.I (EP4/EP2): >350
[1]
  Aqueous Solubility: 20 µM
Human EP2 receptor
  Kb: 28.3 nM

## COc1ccccc1-c1ccc(C(=O)NCCc2c(C)[nH]c3ccccc23)cc1 [Compound 14c, 2′-Methoxy-N-(2-(2-methyl-1H-indol-3-yl)ethyl)-[1,1′-biphenyl]-4-carboxamide]
[1]
  Aqueous Solubility: 5 µM

## CC(=O)c1ccc(Nc2ncc(C(=O)NCCc3c(C)[nH]c4ccccc34)cn2)nc1 [Compound 20l, 2-((5-Acetylpyridin-2-yl)amino)-N-(2-(2-methyl-1H-indol-3-yl)ethyl)pyrimidine-5-carboxamide]
Human EP2 receptor
  Kb: 166 nM
Human EP2 receptor; comparator 20b
  fold reduced EP2 potency in comparison to 20b: 20 fold

## Cc1[nH]c2ccccc2c1CCNC(=O)c1ccc(-c2ccccc2)nc1 [Compound 8a, N-(2-(2-Methyl-1H-indol-3-yl)ethyl)-6-phenylnicotinamide]
[2]
  Solubility in SGF: >100 µM
[1]
  Aqueous Solubility: 25 µM

## Cc1cc(C)nc(Nc2ncc(C(=O)NCCc3c(C)[nH]c4ccc(F)cc34)cn2)c1 [Compound 24a, 2-((4,6-Dimethylpyridin-2-yl)amino)-N-(2-(5-fluoro-2-methyl-1H-indol-3-yl)ethyl)pyrimidine-5-carboxamide]
Human IP receptor
  S.I (IP/EP2): 770
[1]
  Aqueous Solubility: 5 µM

## Cc1[nH]c2ccccc2c1CCNC(=O)c1cnc(Nc2cccc(O)n2)nc1 [Compound 20i, 2-((6-Hydroxypyridin-2-yl)amino)-N-(2-(2-methyl-1H-indol-3-yl)ethyl)pyrimidine-5-carboxamide]
[1]
  Aqueous Solubility: 10 µM

## COc1ccccc1-c1ccc(C(=O)NCCc2c(C)[nH]c3ccccc23)cc1F [Compound 14b, 2-Fluoro-2′-methoxy-N-(2-(2-methyl-1H-indol-3-yl)ethyl)-[1,1′-biphenyl]-4-carboxamide]
[2]
  Solubility in SGF: 10^d μM
[1]
  Aqueous Solubility: 10 µM

## COc1cc(OC)cc(-c2ccc(C(=O)NCCc3c(C)[nH]c4ccccc34)nc2)c1 [Compound 11b, 5-(3,5-Dimethoxyphenyl)-N-(2-(2-methyl-1H-indol-3-yl)ethyl)picolinamide]
[2]
  Solubility in SGF: 10 µM (≈ 4.15 µg/mL)
[1]
  Aqueous Solubility: 10 µM
Human EP2 receptor
  fold less potent than equivalent derivative: 11 fold

## Cc1cccc(Nc2ncc(C(=O)NCCc3c(C)[nH]c4ccccc34)cn2)n1 [Compound 20e, N-(2-(2-Methyl-1H-indol-3-yl)ethyl)-2-((6-methylpyridin-2-yl)amino)pyrimidine-5-carboxamide]
Human IP receptor
  S.I (IP/EP2): >1500
Human EP4 receptor
  S.I (EP4/EP2): >1500
[1]
  Aqueous Solubility: 25 µM

## CC(=O)c1cccc(Nc2ncc(C(=O)NCCc3c(C)[nH]c4ccccc34)cn2)n1 [Compound 20j, 2-((6-Acetylpyridin-2-yl)amino)-N-(2-(2-methyl-1H-indol-3-yl)ethyl)pyrimidine-5-carboxamide]
[1]
  Aqueous Solubility: 5 µM

## Cc1[nH]c2ccccc2c1CCNC(=O)c1cnc(Nc2cccc(C#N)n2)nc1 [Compound 20g, 2-((6-Cyanopyridin-2-yl)amino)-N-(2-(2-methyl-1H-indol-3-yl)ethyl)pyrimidine-5-carboxamide]
[1]
  Aqueous Solubility: 13 µM

## COc1cccc(-c2ccc(C(=O)NCCc3c(C)[nH]c4ccccc34)cn2)c1 [Compound 8b, 6-(3-Methoxyphenyl)-N-(2-(2-methyl-1H-indol-3-yl)ethyl)nicotinamide]
[2]
  Solubility in SGF: >100 µM
[1]
  Aqueous Solubility: 13 µM

## CC(=O)Nc1ccc(-c2ccc(C(=O)NCCc3c(C)[nH]c4ccccc34)cn2)cc1 [Compound 8f, 6-(4-Acetamidophenyl)-N-(2-(2-methyl-1H-indol-3-yl)ethyl)nicotinamide]
[2]
  Solubility in SGF: >100 µM
[1]
  Aqueous Solubility: 25 µM

## Cc1cc(C)nc(Nc2ncc(C(=O)NCCc3c(C)nn4ccccc34)cn2)c1 [Compound 24g, 2-((4,6-Dimethylpyridin-2-yl)amino)-N-(2-(2-methylpyrazolo[1,5-a]pyridin-3-yl)ethyl)pyrimidi-ne-5-carboxamide]
[1]
  Aqueous Solubility: 70 µM

## COc1cc(OC)cc(-c2ccc(C(=O)NCCc3c(C)[nH]c4ccccc34)cn2)c1 [Compound 8g, 6-(3,5-Dimethoxyphenyl)-N-(2-(2-methyl-1H-indol-3-yl)ethyl)nicotinamide]
[2]
  Solubility in SGF: >100 µM
[1]
  Aqueous Solubility: 12 µM
In vivo
  half-life: < 1 h

## Cc1[nH]c2ccccc2c1CCNC(=O)c1cnc(Nc2cccnc2)nc1 [Compound 20q, N-(2-(2-Methyl-1H-indol-3-yl)ethyl)-2-(pyridin-3-ylamino)pyrimidine-5-carboxamide]
Human IP receptor
  S.I (IP/EP2): >1200
Human EP4 receptor
  S.I (EP4/EP2): >1200
[1]
  Aqueous Solubility: 17 µM
Human EP2 receptor
  Kb: 8.3 nM

## COc1cccc(-c2ccc(C(=O)NCCc3c(C)[nH]c4ccccc34)nc2)c1 [Compound 11a, 5-(3-Methoxyphenyl)-N-(2-(2-methyl-1H-indol-3-yl)ethyl)picolinamide]
[2]
  Solubility in SGF: 14 µM (≈ 5.4 µg/mL)
[1]
  Aqueous Solubility: 14 µM
Human EP2 receptor
  fold less potent than equivalent derivative: 4 fold

## Cc1cc(C)nc(Nc2ncc(C(=O)NCC(=O)c3c(C)[nH]c4ccccc34)cn2)c1 [Compound 24h, 2-((4,6-Dimethylpyridin-2-yl)amino)-N-(2-(2-methyl-1H-indol-3-yl)-2-oxoethyl)pyrimidine-5-carboxamide]
Human EP2 receptor
  EP2 KB: eliminated the potency

## CCC(C)(O)c1cccc(Nc2ncc(C(=O)NCCc3c(C)[nH]c4ccccc34)cn2)n1 (centres unmarked) [Compound 20m, 2-((6-(2-Hydroxybutan-2-yl)pyridin-2-yl)amino)-N-(2-(2-methyl-1H-indol-3-yl)ethyl) pyrimidine-5-carboxamide]
[1]
  Aqueous Solubility: 6 µM

## Cc1[nH]c2ccccc2c1CCNC(=O)c1ccc(-c2ccccc2O)nc1 [Compound 8d, 6-(2-Hydroxyphenyl)-N-(2-(2-methyl-1H-indol-3-yl)ethyl)nicotinamide]
[2]
  Solubility in SGF: 50^c μM
[1]
  Aqueous Solubility: 8 µM

## Cc1[nH]c2ccccc2c1CCNC(=O)c1ccc(N2CCOCC2)nc1 [Compound 2b, N-(2-(2-Methyl-1H-indol-3-yl)ethyl)-6-morpholinonicotinamide]
[1]
  Aqueous Solubility: 206 µM
[1]; comparator 2a
  fold increased aqueous solubility: 3 fold
Human EP2 receptor
  Kb: 118 nM
  fold less EP2 potency in comparison to 2a: 4 fold

## CC(=O)Nc1ccc(-c2ccc(C(=O)NCCc3c(C)[nH]c4ccccc34)nc2)cc1 [Compound 11c, 5-(4-Acetamidophenyl)-N-(2-(2-methyl-1H-indol-3-yl)ethyl)picolinamide]
[2]
  Solubility in SGF: 10 µM (≈ 4.12 µg/mL)
[1]
  Aqueous Solubility: 10 µM

## Cc1[nH]c2ccccc2c1CCNC(=O)c1cnc(Nc2cccc(C(C)(C)C)n2)nc1 [Compound 20n, 2-((6-(tert-Butyl)pyridin-2-yl)amino)-N-(2-(2-methyl-1H-indol-3-yl)ethyl)pyrimidine-5-carboxamide]
[1]
  Aqueous Solubility: 25 µM

## Cc1cc(C)nc(Nc2ncc(C(=O)NCCc3c(C(F)(F)F)[nH]c4ccccc34)cn2)c1 [Compound 24f, 2-((4,6-Dimethylpyridin-2-yl)amino)-N-(2-(2-(trifluoromethyl)-1H-indol-3-yl)ethyl)pyrimidine-5-carboxamide]
[1]
  Aqueous Solubility: 45 µM
Human EP2 receptor
  Kb: 66 nM
Human EP2 receptor; comparator 20o
  fold reduced EP2 potency in comparison to 20o: 8 fold

## Cc1[nH]c2ccccc2c1CCNC(=O)c1cnc(Nc2ccncc2)nc1 [Compound 20p, N-(2-(2-Methyl-1H-indol-3-yl)ethyl)-2-(pyridin-4-ylamino)pyrimidine-5-carboxamide]
[1]
  Aqueous Solubility: 38 µM
Human EP2 receptor
  EP2 KB: complete loss of potency

— patent publication US20250206721A1, “Prostaglandin Receptor EP2 Antagonists, Derivatives, and Uses Related Thereto” (Emory University, priority 2019, published 2025)
